Key:
Test in all cases: Cell death protection, LDH release after RSL3
Assay type in all cases: cell-based
HK-2 = settings: Homo sapiens, HK-2, RSL3 0.3 μM, 24 hours
Protocol: (§1) To confirm the protective effect on cardiac cells, adrenal medulla cells, renal fibroblasts, retinal epithelial cells, lung epithelial cells, renal proximal tubule epithelial cells, hippocampal neurons, and fibroblasts, 4×10^3 to 1.2×10^4 cells of each cell type were dispensed into 96-well plates and cultured for 18 to 24 hours. Each well was treated with the example compound, which was diluted so that the final concentration became 0.001, 0.003, 0.01, 0.03, 0.1, 0.3, 1, 3, and 10 μM, and culture was performed for 15 to 20 minutes. […] To confirm the cell protecting effect of the example compounds, a cytotoxicity LDH assay kit [Dojindo; CK12] was used to measure the level of extracellular secretion of lactate dehydrogenase (LDH). Briefly, at the time point when the 24-hour treatment of each cell type with RSL3 ended, 70 μL of each supernatant from cell culture medium was taken and transferred to a new 96-well plate. After adding 70 μL/well (the same amount as the sample) of the assay buffer included in the kit, the resulting mixture was wrapped with foil and allowed to react at room temperature for 15 to 20 minutes. After observing the color change of the sample, 35 μL/well of a stop solution was added, and the absorbance value at 490 nm was measured using an iD3 spectrophotometer to calculate the EC50 value.
(§2) Table 3. Effect of protecting cardiac cells, adrenal medulla cells, renal fibroblasts, retinal epithelial cells, lung epithelial cells, renal proximal tubule epithelial cells, hippocampal neurons, and fibroblasts against cell death induced by RSL3.

H9C2 = settings: Rattus norvegicus, H9C2, RSL3 0.5 μM, 24 hours
Protocol: as §1, §2

NIH/3T3 = settings: Mus musculus, NIH3T3, NIH/3T3, RSL3 3 μM, 24 hours
Protocol: as §1, §2

HT-22 = settings: Mus musculus, HT-22, RSL3 0.3 μM, 24 hours
Protocol: as §1, §2

PC-12 = settings: Rattus norvegicus, PC-12, RSL3 0.3 μM, 24 hours
Protocol: as §1, §2

NRK-49F = settings: Rattus norvegicus, RSL3 3 μM, 24 hours
Protocol: as §1, §2

MLE-12 = settings: MLE12, MLE-12, RSL3 1 μM, 24 hours
Protocol: as §1, §2

ARPE-19 = settings: Homo sapiens, ARPE-19, RSL3 0.3 μM, 24 hours
Protocol: as §1, §2

| Structure (SMILES) | EC50 (HK-2) [µM] | EC50 (H9C2) [µM] | EC50 (NIH/3T3) [µM] | EC50 (HT-22) [µM] | EC50 (PC-12) [µM] | EC50 (NRK-49F) [µM] | EC50 (MLE-12) [µM] | EC50 (ARPE-19) [µM] |
| --- | --- | --- | --- | --- | --- | --- | --- | --- |
| CCOC(=O)c1cc(NC2CCCC2)c2[nH]c(-c3ccccc3)cc2c1 [Example 2, ethyl 7-(cyclopentylamino)-2-phenyl-1H-indole-5-carboxylate] | ≤ 0.03 | ≤ 0.03 | ≤ 0.03 | ≤ 0.03 | ≤ 0.03 | ≤ 0.03 | ≤ 0.03 | ≤ 0.03 |
| O=S1(=O)CCN(Cc2cc(NCC3CCOCC3)c3[nH]c(-c4ccccc4)cc3c2)CC1 [Example 6, 4-((2-phenyl-7-(((tetrahydro-2H-pyran-4-yl)methyl)amino)-1H-indol-5-yl)methyl)thiomorpholine 1,1-dioxide] | ≤ 0.03 | ≤ 0.03 | 0.03 to 0.1 | 0.03 to 0.1 | 0.03 to 0.1 | ≤ 0.03 | ≤ 0.03 | ≤ 0.03 |
| CS(=O)(=O)N1CCC(Nc2cc(CN3CCS(=O)(=O)CC3)cc3cc(-c4ccccc4)[nH]c23)CC1 [Example 22, 4-((7-((1-(methylsulfonyl)piperidin-4-yl)amino)-2-phenyl-1H-indole-5-yl)methyl)thiomorpholine 1,1-dioxide] | 0.03 to 0.1 | 0.03 to 0.1 | 0.03 to 0.1 | 0.03 to 0.1 | 0.03 to 0.1 | 0.03 to 0.1 | ≤ 0.03 | ≤ 0.03 |
| Cc1cc(NC2CCCC2)c2[nH]c(-c3ccccc3)cc2c1 [Example 33, N-cyclopentyl-5-methyl-2-phenyl-1H-indole-7-amine] | ≤ 0.03 | ≤ 0.03 | ≤ 0.03 | ≤ 0.03 | 0.03 to 0.1 | ≤ 0.03 | ≤ 0.03 | ≤ 0.03 |
